Experimental data: patent publication US10723741B1, “DNA polymerase IIIC inhibitors and use thereof” (Acurx Pharmaceuticals, LLC, priority 2018, dated 2020)
Converted amounts (≈) assume the structure as drawn.

How the values were obtained:
Type in all cases: cell-based
[1] = system: Streptococcus pneumoniae ATCC 49619; test: Broth microdilution MIC, S. pneumoniae ATCC 49619; details: ATCC49619, broth microdilution, 37° C., 20 hours, read-out: MIC S. pneumoniae ATCC 49619
Excerpt: (§1) Bacteria tested are Staphylococcus aureus NRS384 (a methicillin-resistant Staphylococcus aureus, MRSA), Staphylococcus aureus ATCC 29213 (a methicillin-sensitive Staphylococcus aureus, MSSA), Streptococcus pneumoniae ATCC 49619, Enterococcus faecalis ATCC 29212, Enterococcus faecium ATCC 700221 (a vancomycin-resistant enterococcus, VRE), Bacillus subtilis ATCC 6633, and Escherichia coli ATCC 25922.
(§2) Staphylococcus aureus NRS384 was obtained from NARSA (Network on Antimicrobial Resistance in Staphylococcus aureus, now the strain collection is in BEI resources). Other bacterial isolates were from ATCC (The American Type Culture Collection). Upon receiving the bacteria samples from aforementioned institutes, the bacteria were cultured according to the manuals provided by the suppliers. The bacteria were stored in 25% glycerol (final concentration) at −80° C.
(§3) On the day of testing, the compounds were dissolved in pure DMSO (Sigma 276855-1L) to […] as stock. In a v-bottom 96-well plate (Axygen-wipp02280), 20 μl DMSO was added into well 2 to well 12 by manual pipetting. Into well 1, 12.8 μL of compound DMSO stock (20 mg/ml) was added and mixed with 27.2 μl DMSO by pipetting. Two fold serial dilutions were performed by transferring and mixing 20 μl of solution from well 1 to well 2, then well 2 to well 3 and so forth until well 11. The well 12 was loaded with 20 μl DMSO without compounds. This was drug ‘mother plate’. From well 1 to well 12, the drug concentrations in the mother plate were […] in DMSO. A multi-pipette was used to perform the serial dilutions. The concentration may be adjusted according to the potency of the compounds. An Echo® Acoustic liquid handling system may be used to replace manual pipetting to make the daughter plates.
(§4) One day prior to the day of MIC testing, bacterial strains were streaked out from −80° C. glycerol stocks onto MHA plates and incubated at 37° C. for 20 hours. Streptococcus pneumoniae was streaked on blood agar and incubated at 37° C. in 5% CO2. The single colonies were picked by using an inoculation loop (Greiner-731175) and suspended into 5 ml sterile saline. The turbidity of the suspension was adjusted to 0.10 (Siemens MicroScan turbidity meter), equal to ˜1.0×10^8 cfu/ml. The bacterial suspension was diluted 200× in corresponding test medium (Table 1). This was used to inoculate daughter plates.
(§5) For preparing u-bottom 96-well ‘daughter plates’ (Costar 3788), an aliquot of 1 μl solution from mother plate was then replicating transferred into the daughter plate using a multi-pipette.
(§6) An aliquot of 99 μl of the bacterial suspension was inoculated into each well of the daughter plates using a multi-pipette. Each well contained ˜5.0×10^5 cfu/ml bacteria, 1% DMSO and serially diluted compounds at 64, 32, 16, 8, 4, 2, 1, 0.5, 0.25, 0.125, 0.0625 and 0 μg/ml from well 1 to well 12 respectively, in 100 μl corresponding test medium.
(§7) The plates were incubated in ambient atmosphere and in a 37° C. incubator for 20 hours.
(§8) Compounds of the present invention were tested for antibacterial activity against a variety of bacterial organism including Bacillus subtilis, Staphylococcus aureus, Enterococcus faecalis, Enterococcus faecium, Streptococcus pneumoniae and Escherichia coli. […] Compounds described in Examples 2, 44, 53, 56, 90, 134, 212, 213, 214, 218, 222, 304, 305, and 307 had MIC of ≤1 μg/ml against S. aureus NRS 384 (MRSA) (μg/ml) and E. faecium ATCC 700221 (VRE) (μg/ml).

[2] = system: Staphylococcus aureus NRS384 (MRSA); test: Broth microdilution MIC, S. aureus NRS384 (MRSA); details: Staphylococcus aureus; broth microdilution, 37° C., 20 hours; read-out: MIC NRS 384 (MRSA)
Excerpt: as §1, §2, §3, §4, §5, §6, §7, §8

[3] = system: Enterococcus faecium ATCC 700221 (VRE); test: Broth microdilution MIC, E. faecium ATCC 700221 (VRE); details: Enterococcus faecium; broth microdilution, 37° C., 20 hours; read-out: MIC E. faecium ATCC 700221 (VRE)
Excerpt: as §1, §2, §3, §4, §5, §6, §7, §8

[4] = system: Enterococcus faecalis ATCC 29212; test: Broth microdilution MIC, E. faecalis ATCC 29212; details: ATCC29212, broth microdilution, 37° C., 20 hours, read-out: MIC E. faecalis ATCC 29212
Excerpt: as §1, §2, §3, §4, §5, §6, §7, §8

[5] = system: Staphylococcus aureus ATCC 29213 (MSSA); test: Broth microdilution MIC, S. aureus ATCC 29213 (MSSA); details: broth microdilution, 37° C., 20 hours, read-out: MIC S. aureus ATCC 29213 (MSSA)
Excerpt: as §1, §2, §3, §4, §5, §6, §7, §8

[6] = system: Bacillus subtilis ATCC 6633; test: Broth microdilution MIC, B. subtilis ATCC 6633; details: ATCC6633, broth microdilution, 37° C., 20 hours, read-out: MIC B. subtilis ATCC 6633
Excerpt: as §1, §2, §3, §4, §5, §6, §7, §8

[7] = system: Escherichia coli ATCC 25922; test: Broth microdilution MIC, E. coli ATCC 25922 (MHIIB w & w/o 4 mM EDTA); details: broth microdilution, 37° C., 20 hours; for MIC: Escherichia coli, ATCC25922, without EDTA, read-out: MIC E. coli ATCC 25922; for MIC E. coli ATCC 25922 + 4 mM EDTA: with 4 mM EDTA
Excerpt: as §1, §2, §3, §4, §5, §6, §7, §8

SMILES | MIC [1] | MIC [2] | MIC [3] | MIC [4] | MIC [5] | MIC [6] | MIC [7] | MIC E. coli ATCC 25922 + 4 mM EDTA [7]
Cn1ncc2nc(NCc3ccc(Cl)c(F)c3)[nH]c(=O)c21 [Compound 1, 5-((4-chloro-3-fluorobenzyl)amino)-1-methyl-1H-pyrazolo[4,3-d]pyrimidin-7(6H)-one] | 4 µg/mL (≈ 13 µM) | 8 µg/mL (≈ 26 µM) | 8 µg/mL (≈ 26 µM) | 16 µg/mL (≈ 52 µM) | 8 µg/mL (≈ 26 µM) | 4 µg/mL (≈ 13 µM) | > 64 µg/mL | 32 µg/mL
Cn1ncc2nc(NCc3ccccc3)[nH]c(=O)c21 [Compound 3, 5-(Benzylamino)-1-methyl-1H-pyrazolo[4,3-d]pyrimidin-7(6H)-one] | 32 µg/mL (≈ 125 µM) | 64 µg/mL (≈ 251 µM) | 32 µg/mL (≈ 125 µM) | 64 µg/mL (≈ 251 µM) | 32 µg/mL (≈ 125 µM) | 32 µg/mL (≈ 125 µM) | > 64 µg/mL | >64 µg/mL
Cn1ncc2nc(NCc3ccccn3)[nH]c(=O)c21 [Compound 4, 1-Methyl-5-((pyridin-2-ylmethyl)amino)-1H-pyrazolo[4,3-d]pyrimidin-7(6H)-one] | > 64 µg/mL | > 64 µg/mL | > 64 µg/mL | > 64 µg/mL | > 64 µg/mL | > 64 µg/mL | > 64 µg/mL | >64 µg/mL
Cn1ncc2nc(NCc3cccnc3)[nH]c(=O)c21 [Compound 5, 1-Methyl-5-(3-pyridylmethylamino)-6H-pyrazolo[4,3-d]pyrimidin-7-one] | > 64 µg/mL | > 64 µg/mL | > 64 µg/mL | > 64 µg/mL | > 64 µg/mL | > 64 µg/mL | > 64 µg/mL | >64 µg/mL
Cn1ncc2nc(NCc3ccncc3)[nH]c(=O)c21 [Compound 6, 1-Methyl-5-((pyridin-4-ylmethyl)amino)-1H-pyrazolo[4,3-d]pyrimidin-7(6H)-one] | > 64 µg/mL | > 64 µg/mL | > 64 µg/mL | > 64 µg/mL | > 64 µg/mL | > 64 µg/mL | > 64 µg/mL | >64 µg/mL
Cn1ncc2nc(NCc3ccc(F)c(F)c3)[nH]c(=O)c21 [Compound 7, 5-((3,4-Difluorobenzyl)amino)-1-methyl-1H-pyrazolo[4,3-d]pyrimidin-7(6H)-one] | 8 µg/mL (≈ 27.5 µM) | 16 µg/mL (≈ 54.9 µM) | 8 µg/mL (≈ 27.5 µM) | 16 µg/mL (≈ 54.9 µM) | 16 µg/mL (≈ 54.9 µM) | 8 µg/mL (≈ 27.5 µM) | > 64 µg/mL | >64 µg/mL
Cn1ncc2nc(NCCc3ccc(Cl)c(Cl)c3)[nH]c(=O)c21 [Compound 8, 5-((3,4-Dichlorophenethyl)amino)-1-methyl-1H-pyrazolo[4,3-d]pyrimidin-7(6H)-one] | > 64 µg/mL | > 64 µg/mL | > 64 µg/mL | > 64 µg/mL | > 64 µg/mL | > 64 µg/mL | > 64 µg/mL | >64 µg/mL

The next lines start with the values.

MIC [1] | MIC [2] | MIC [3] | MIC [4] | MIC [5] | MIC [6] | MIC [7] | MIC E. coli ATCC 25922 + 4 mM EDTA [7] | SMILES
> 64 µg/mL | > 64 µg/mL | > 64 µg/mL | > 64 µg/mL | > 64 µg/mL | > 64 µg/mL | > 64 µg/mL | >64 µg/mL | Cn1ncc2nc(Nc3ccc(Cl)c(Cl)c3)[nH]c(=O)c21 [Compound 9, 5-((3,4-Dichlorophenyl)amino)-1-methyl-1H-pyrazolo[4,3-d]pyrimidin-7(6H)-one]
> 64 µg/mL | > 64 µg/mL | > 64 µg/mL | > 64 µg/mL | > 64 µg/mL | > 64 µg/mL | > 64 µg/mL | >64 µg/mL | Cn1ncc2nc(Nc3ccccc3)[nH]c(=O)c21 [Compound 10, 1-Methyl-5-(phenylamino)-1H-pyrazolo[4,3-d]pyrimidin-7(6H)-one]
> 64 µg/mL | > 64 µg/mL | > 64 µg/mL | > 64 µg/mL | > 64 µg/mL | > 64 µg/mL | > 64 µg/mL | >64 µg/mL | Cn1ncc2nc(NCc3ncccn3)[nH]c(=O)c21 [Compound 11, 1-Methyl-5-((pyrimidin-2-ylmethyl)amino)-1H-pyrazolo[4,3-d]pyrimidin-7(6H)-one]
> 64 µg/mL | > 64 µg/mL | > 64 µg/mL | > 64 µg/mL | > 64 µg/mL | > 64 µg/mL | > 64 µg/mL | >64 µg/mL | Cn1ncc2nc(NCc3cnccn3)[nH]c(=O)c21 [Compound 12, 1-Methyl-5-((pyrazin-2-ylmethyl)amino)-1H-pyrazolo[4,3-d]pyrimidin-7(6H)-one]
> 64 µg/mL | > 64 µg/mL | > 64 µg/mL | > 64 µg/mL | > 64 µg/mL | > 64 µg/mL | > 64 µg/mL | >64 µg/mL | Cn1ncc2nc(NCc3ccc4[nH]ncc4c3)[nH]c(=O)c21 [Compound 13, 5-(((1H-indazol-5-yl)methyl)amino)-1-methyl-1H-pyrazolo[4,3-d]pyrimidin-7(6H)-one]
> 64 µg/mL | > 64 µg/mL | > 64 µg/mL | > 64 µg/mL | > 64 µg/mL | > 64 µg/mL | > 64 µg/mL | >64 µg/mL | Cn1ncc2nc(NCc3ccc4[nH]ccc4c3)[nH]c(=O)c21 [Compound 14, 5-(((1H-indol-5-yl)methyl)amino)-1-methyl-1H-pyrazolo[4,3-d]pyrimidin-7(6H)-one]
> 64 µg/mL | > 64 µg/mL | > 64 µg/mL | > 64 µg/mL | > 64 µg/mL | > 64 µg/mL | > 64 µg/mL | >64 µg/mL | Cn1ncc2nc(NCc3cscn3)[nH]c(=O)c21 [Compound 15, 1-Methyl-5-((thiazol-4-ylmethyl)amino)-1H-pyrazolo[4,3-d]pyrimidin-7(6H)-one]
> 64 µg/mL | > 64 µg/mL | > 64 µg/mL | > 64 µg/mL | > 64 µg/mL | > 64 µg/mL | > 64 µg/mL | >64 µg/mL | Cn1ncc2nc(NCc3cc[nH]n3)[nH]c(=O)c21 [Compound 16, 5-(((1H-pyrazol-3-yl)methyl)amino)-1-methyl-1H-pyrazolo[4,3-d]pyrimidin-7(6H)-one]
> 64 µg/mL | > 64 µg/mL | > 64 µg/mL | > 64 µg/mL | > 64 µg/mL | > 64 µg/mL | > 64 µg/mL | >64 µg/mL | Cn1ncc2nc(NCc3cn[nH]n3)[nH]c(=O)c21 [Compound 17, 5-(((2H-1,2,3-triazol-4-yl)methyl)amino)-1-methyl-1H-pyrazolo[4,3-d]pyrimidin-7(6H)-one]
